According to US20240366611A1, “METHODS OF TREATING A DISEASE OR DISORDER” (Ascentage Pharma (Suzhou) Co., Ltd., priority 2021, published 2024):

Key:
[1] = test system: H3K27me3 in PBMC monocytes; assay: H3K27me3 level in PBMC monocytes (FACS, H3K27me3/H3 ratio); type: in vivo, CD-1 mice; conditions: vs vehicle
Protocol: Female CD-1 mice (8 weeks old) were housed and handled in a temperature-controlled environment with a 12-h light/12-h dark cycle. A total of 25 mice were assigned to 5 groups by randomization based on body weight, followed by 5 days of treatment with vehicle (po, qd), 3 mg/kg Cpd. 73 (po, qd), 10 mg/kg Cpd. 73 (po, qd), 30 mg/kg Cpd. 73 (po, qd), or 90 mg/kg Cpd. 73 (po, qd). The protocols and procedures involving the care and use of animals were approved by the Institutional Animal Care and Use Committee (IACUC) of WuXiAppTec (Shanghai) Co., Ltd. (Shanghai, China).
Mice were euthanatized 4 hours post the last dose. Whole blood and bone marrow were collected. Bone marrow cells were flushed from femur and tibia with IMDM+/+ (IMDM, 10% heat inactivated FBS, 100 U/mL penicillin and 100 μg/mL streptomycin). Aggregate was removed by passing through 40 μm cell strainer. 5 mL DPBS was used to pellet the cells after centrifugation, and the cell number was counted. Whole blood was added with 1×RBC lysis buffer remove RBC (whole blood: 1×RBC lysis buffer=1:9), and mononuclear cells were collected by centrifugation. The cells were then washed with 1×DPBS for once and resuspended in 3 ml DPBS after centrifugation followed by cell number counting.
Bone marrow cells were stained with FITC-conjugated anti-mouse TER-119 antibody (Thermo Fisher, 11-5921-82) and eFluor 506-conjugated anti-mouse CD45 antibody (Thermo Fisher, 69-0451-82). TER-119+ cells were erythroid lineage cells. PBMC were stained with eFlour 450-conjugated anti-mouse CD11b antibody (Invitrogen, 48-0112-82), PerCP-eFluor710-conjugated anti-mouse CD3 antibody (Invitrogen, 46-0032-82), eFluor 506-conjugated anti-mouse CD45 antibody (Thermo Fisher, 69-0451-82). CD45+CD3−CD11b+ cells were monocytes from PBMC.
After washing, centrifugation and fixation, the cells were permeabilized and further incubated with antibodies of H3K27m3 (Tri-Methyl-Histone H3 (Lys27) (C36B11) Rabbit mAb (PE Conjugate), CST, 40724S) and H3 (Histone H3 (D1H2) XP® Rabbit mAb (Alexa Fluor®647 Conjugate), CST, 12230S), followed by FACS analysis to quantify the mean fluorescence intensity of target cells. The ratio between the fluorescence intensity of H3K27me3 and H3 were used to reflect the level of H3K27me3 in the cells.

HbF in human CD34+ HSC = assay: HbF concentration in human CD34+ HSC by ELISA; type: cell-based; conditions: 7 days of treatment
Protocol: (§1) Human cord blood CD34+ hematopoietic stem cells (HSC) were first expanded in the expansion medium (StemSpan SFEM II+StemSpan CD34 Expansion Supplement) to achieve the desired number of cells, and then differentiated in differentiation medium (StemSpan SFEM II+StemSpan Erythroid Expansion Supplement (100×)) for three days without drug treatment. Various concentrations of Cpd. 73 were added on the fourth day of differentiation and further incubated with the cells for another 7 days. 33 mM Hydroxyurea was used as the control.
After 7 days of treatment, the cells were collected and lysed. The concentration of HbF in the cell lysate was determined using a Human Fetal Hemoglobin (HBF) ELISA Kit (MyBioSource, MBS2024474). […] The cellular HbF concentration were 1.27-, 1.39-, 1.52-, 1.58- and 1.69-folds of the vehicle group when the cells were treated with 0.01 μM, 0.03 μM, 0.1 μM, 0.3 μM and 1.0 μM Cpd. 73 respectively. […] 73 where the cellular HbF concentration was 1.69-folds of the vehicle group (p<0.01). HbF concentration of cells treated with 33 mM Hydroxyurea was 1.18-folds of the vehicle group. Clinically, small increases of HbF concentration (1-5%) have the potential to provide clinical benefits to all SCD patients.

[2] = test system: HbF+ cells in human CD34+ HSC; assay: HbF+ cell % in human CD34+ HSC by FACS; type: cell-based; conditions: 7 days of treatment
Protocol: as §1
After 7 days of treatment, the cells were collected and stained with PE-conjugated Mouse Anti-Human Fetal Hemoglobin (BD, 560041). The percentage of HbF+ cells were quantified by FACS. […] 73 respectively. […] 73 where HbF+ cell % was 2.58-folds of the vehicle group (p<0.0001). The % of HbF+ cells was 1.82-folds of the vehicle group when the cells were treated with 33 mM Hydroxyurea.

CC(C)N1Cc2cc(C(F)(F)F)ncc2-c2cnc(NCc3c(F)ccc4c3CCO4)n3cnc(c23)C1=O [Cpd. 73, 12-(((5-fluoro-2,3-dihydrobenzofuran-4-yl)methyl)amino)-4-isopropyl-7-(trifluoromethyl)-4,5-dihydro-3H-2,4,8,11,12a-pentaazabenzo[4,5]cycloocta[1,2,3-cd]inden-3-one]
percent of decrease of H3K27me3 level ([1]; 3 mg/kg po qd×5 days): 17.9% | percent of decrease of H3K27me3 level ([1]; 10 mg/kg po qd×5 days): 40.5% | percent of decrease of H3K27me3 level ([1]; 30 mg/kg po qd×5 days): 8.8% | percent of decrease of H3K27me3 level ([1]; 90 mg/kg po qd×5 days): 41.2% | cellular HbF concentration, folds of the vehicle group (HbF in human CD34+ HSC; 0.01 μM): 1.27 folds | cellular HbF concentration, folds of the vehicle group (HbF in human CD34+ HSC; 0.03 μM): 1.39 folds | cellular HbF concentration, folds of the vehicle group (HbF in human CD34+ HSC; 0.1 μM): 1.52 folds | cellular HbF concentration, folds of the vehicle group (HbF in human CD34+ HSC; 0.3 μM): 1.58 folds | cellular HbF concentration, folds of the vehicle group (HbF in human CD34+ HSC; 1.0 μM, maximal effect, p<0.01): 1.69 folds | % of HbF+ cells, folds of the vehicle group ([2]; 0.01 μM): 0.73 folds | % of HbF+ cells, folds of the vehicle group ([2]; 0.03 μM): 0.86 folds | % of HbF+ cells, folds of the vehicle group ([2]; 0.1 μM): 1.50 folds | % of HbF+ cells, folds of the vehicle group ([2]; 0.3 μM): 1.73 folds | % of HbF+ cells, folds of the vehicle group ([2]; 1.0 μM, maximal effect, p<0.0001): 2.58 folds
